# Assay results as given in ChEMBL document CHEMBL4000203, “Green synthesis and anticancer potential of chalcone linked-1,2,3-triazoles” (Eur J Med Chem, 2017).
# Legend:
# MCF7 [1] = assay: Cytotoxicity against human MCF7 cells assessed as growth inhibition at 10 uM measured after 48 hrs by MTT assay relative to control; type: functional; settings: MCF7, 48 h, read-out: GI
# MIA PaCa-2 [2] = assay: Cytotoxicity against human MIAPaCa2 cells assessed as growth inhibition at 10 uM measured after 48 hrs by MTT assay relative to control; type: functional; settings: MIA PaCa-2, 48 h, read-out: GI
# A549 [3] = assay: Cytotoxicity against human A549 cells assessed as growth inhibition at 10 uM measured after 48 hrs by MTT assay relative to control; type: functional; settings: A549, 48 h, read-out: GI
# HepG2 [4] = assay: Cytotoxicity against human HepG2 cells assessed as growth inhibition at 10 uM measured after 48 hrs by MTT assay relative to control; type: functional; settings: HepG2, 48 h, read-out: GI
# [5] = Cytotoxicity against human FR2 cells assessed as growth inhibition at 10 uM measured after 48 hrs by MTT assay relative to control; type: cell-based; settings: FR2 cells, read-out: GI
# MCF7 [6] = assay: Cytotoxicity against human MCF7 cells measured after 48 hrs by MTT assay; type: functional, cell-based; settings: MCF7, 48 h
# MIA PaCa-2 [7] = assay: Cytotoxicity against human MIAPaCa2 cells measured after 48 hrs by MTT assay; type: functional, cell-based; settings: MIA PaCa-2, 48 h
# A549 [8] = assay: Cytotoxicity against human A549 cells measured after 48 hrs by MTT assay; type: functional, cell-based; settings: A549, 48 h
# HepG2 [9] = assay: Cytotoxicity against human HepG2 cells measured after 48 hrs by MTT assay; type: functional, cell-based; settings: HepG2, 48 h
# [10] = Cytotoxicity against human FR2 cells measured after 48 hrs by MTT assay; type: cell-based; settings: FR2, 48 h
# [11] = Selectivity index, ratio of IC50 for human FR2 cells to IC50 for human MCF7 cells; type: functional
# [12] = Selectivity index, ratio of IC50 for human FR2 cells to IC50 for human MIAPaCa2 cells; type: functional
# MIA PaCa-2 [13] = assay: Cell cycle arrest in human MIAPaCa2 cells assessed as apoptotic cells at 10 uM measured after 24 hrs by propidium iodide staining based flow cytometric analysis (reference value: 1%); type: functional
# MIA PaCa-2 [14] = assay: Cell cycle arrest in human MIAPaCa2 cells assessed as accumulation at G1 phase at 10 uM measured after 24 hrs by propidium iodide staining based flow cytometric analysis (reference value: 59%); type: functional
# MIA PaCa-2 [15] = assay: Cell cycle arrest in human MIAPaCa2 cells assessed as accumulation at G2 phase at 10 uM measured after 24 hrs by propidium iodide staining based flow cytometric analysis (reference value: 5%); type: functional
# MIA PaCa-2 [16] = assay: Cell cycle arrest in human MIAPaCa2 cells assessed as accumulation at S phase at 10 uM measured after 24 hrs by propidium iodide staining based flow cytometric analysis (reference value: 36%); type: functional
# MIA PaCa-2 [17] = assay: Cell cycle arrest in human MIAPaCa2 cells assessed as apoptotic cells at 30 uM measured after 24 hrs by propidium iodide staining based flow cytometric analysis (reference value: 1%); type: functional
# MIA PaCa-2 [18] = assay: Cell cycle arrest in human MIAPaCa2 cells assessed as accumulation at G1 phase at 30 uM measured after 24 hrs by propidium iodide staining based flow cytometric analysis (reference value: 59%); type: functional
# MIA PaCa-2 [19] = assay: Cell cycle arrest in human MIAPaCa2 cells assessed as accumulation at G2 phase at 30 uM measured after 24 hrs by propidium iodide staining based flow cytometric analysis (reference value: 5%); type: functional
# MIA PaCa-2 [20] = assay: Cell cycle arrest in human MIAPaCa2 cells assessed as accumulation at S phase at 30 uM measured after 24 hrs by propidium iodide staining based flow cytometric analysis (reference value: 36%); type: functional
# MIA PaCa-2 [21] = assay: Cell cycle arrest in human MIAPaCa2 cells assessed as apoptotic cells at 50 uM measured after 24 hrs by propidium iodide staining based flow cytometric analysis (reference value: 1%); type: functional
# MIA PaCa-2 [22] = assay: Cell cycle arrest in human MIAPaCa2 cells assessed as accumulation at G1 phase at 50 uM measured after 24 hrs by propidium iodide staining based flow cytometric analysis (reference value: 59%); type: functional
# MIA PaCa-2 [23] = assay: Cell cycle arrest in human MIAPaCa2 cells assessed as accumulation at G2 phase at 50 uM measured after 24 hrs by propidium iodide staining based flow cytometric analysis (reference value: 5%); type: functional
# MIA PaCa-2 [24] = assay: Cell cycle arrest in human MIAPaCa2 cells assessed as accumulation at S phase at 50 uM measured after 24 hrs by propidium iodide staining based flow cytometric analysis (reference value: 36%); type: functional
# MIA PaCa-2 [25] = assay: Cell cycle arrest in human MIAPaCa2 cells assessed as apoptotic cells measured after 24 hrs by propidium iodide staining based flow cytometric analysis; type: functional
# MIA PaCa-2 [26] = assay: Induction of mitochondrial membrane depolarization in human MIAPaCa2 cells measured after 24 hrs by […] staining based flow cytometric analysis; type: functional, cell-based
# MIA PaCa-2 [27] = assay: Induction of mitochondrial membrane depolarization in human MIAPaCa2 cells at 10 uM measured after 24 hrs by […] staining flow cytometric analysis (reference value: 2%); type: functional
# MIA PaCa-2 [28] = assay: Induction of mitochondrial membrane depolarization in human MIAPaCa2 cells at 30 uM measured after 24 hrs by […] staining flow cytometric analysis (reference value: 2%); type: functional
# MIA PaCa-2 [29] = assay: Induction of mitochondrial membrane depolarization in human MIAPaCa2 cells at 50 uM measured after 24 hrs by […] staining flow cytometric analysis (reference value: 2%); type: functional
# MIA PaCa-2 [30] = assay: Induction of apoptosis in human MIAPaCa2 cells assessed as activation of procaspase-9 measured after 24 hrs by Western blot analysis; type: functional, cell-based
# MIA PaCa-2 [31] = assay: Induction of apoptosis in human MIAPaCa2 cells assessed as activation of procaspase-8 measured after 24 hrs by Western blot analysis; type: functional, cell-based
# MIA PaCa-2 [32] = assay: Induction of apoptosis in human MIAPaCa2 cells assessed as increase in casapase-3 cleavage measured after 24 hrs by Western blot analysis; type: functional, cell-based
# MIA PaCa-2 [33] = assay: Induction of apoptosis in human MIAPaCa2 cells assessed as increase in PARP-1 cleavage measured after 24 hrs by Western blot analysis; type: functional, cell-based
structure (smiles),measurement,setting,value
COc1ccc(C(=O)/C=C/c2ccc(OCc3cn(Cc4ccccc4)nn3)cc2)cc1,inhibition of growth at 10 µM,MCF7 [1],70%
same,inhibition of growth at 10 µM,MIA PaCa-2 [2],68%
same,inhibition of growth at 10 µM,A549 [3],44%
same,inhibition of growth at 10 µM,HepG2 [4],51%
same,"inhibition at 48 h, 10 µM",[5],6%
same,IC50,MCF7 [6],5 µM
same,IC50,MIA PaCa-2 [7],4 µM
same,IC50,A549 [8],11 µM
same,IC50,HepG2 [9],9 µM
same,IC50,[10],> 100 µM
same,Ratio IC50,[11],>20
same,Ratio IC50,[12],25
same,Activity,MIA PaCa-2 [13],2%
same,Activity,MIA PaCa-2 [14],36%
same,Activity,MIA PaCa-2 [15],11%
same,Activity,MIA PaCa-2 [16],53%
same,Activity,MIA PaCa-2 [17],6%
same,Activity,MIA PaCa-2 [18],52%
same,Activity,MIA PaCa-2 [19],14%
same,Activity,MIA PaCa-2 [20],44%
same,Activity,MIA PaCa-2 [21],11%
same,Activity,MIA PaCa-2 [22],41%
same,Activity,MIA PaCa-2 [23],8%
same,Activity,MIA PaCa-2 [24],51%
same,Activity,MIA PaCa-2 [25],Dose-dependent effect
same,Activity,MIA PaCa-2 [26],Dose-dependent effect
same,Activity,MIA PaCa-2 [27],4%
same,Activity,MIA PaCa-2 [28],8%
same,Activity,MIA PaCa-2 [29],11%
same,Activity,MIA PaCa-2 [30],Dose-dependent effect
same,Activity,MIA PaCa-2 [31],Dose-dependent effect
same,Activity,MIA PaCa-2 [32],Dose-dependent effect
same,Activity,MIA PaCa-2 [33],Dose-dependent effect
